# Test results from patent publication EP0238198A2, “Method of modifying the lipid structure function and expression of cell membranes and pharmaceutical compositions for use therein” (Habib, Nagy Adly, priority 1986, dated 1987).
# Like-named read-outs stand apart in the source and are kept apart here.
# Test system: type 2 herpes simplex virus (HSV)
# Assay: HSV2 replication in human embryonic lung fibroblasts (virus yield)
# Format: cell-based, HSV type 2
# Settings: for inhibition at 75 µM / inhibition at 25 µM / inhibition at 50 µM / inhibition at 100 µM: Human alphaherpesvirus 2, Fibroblast, 28 h
# Experimental: Stearic and iodinated stearic acids were assayed for their inhibitory effects on the replication of type 2 herpes simplex virus (HSV) in sub-confluent monolayer cultures of human embryonic lung fibroblasts. […] This was accomplished by reacting hydriodic acid with oleic acid in acetic acid at 20°C. Excess iodine was removed at the end of the reaction by the addition of an excess of sodium thiosulphate, and the product fatty acid was extracted into hexane.
# Bovine serum albumin conjugates of the fatty acids (prepared according to the method of A.A.Spector and-J.C.Hoak, J.Anal.Biochem. 1969, 32, 297-302) were added to the cell culture medium at various concentrations in the range 25 - 100 micromolar final concentration and at various times before and after (from 0 to 12 hours) infection with partially purified clinical isolates of HSV type 2, at a multiplicity of infection of 0.1 plaque forming units/cell.
# 28 hours after infection the titre of infectious virus in the culture supernatants was determined by standard infectious centre techniques on fresh human embryonic lung fibroblasts.
structure (smiles),measurement,setting,value
"CCCCCCCCCCCCCCCCCC(=O)O [stearic acid, octadecanoic acid]",inhibition at 75 µM,"75 micromolar in the culture medium, cells treated for 3-4 hours before infection, read-out: maximum anti-viral activity (reduction in virus yield)",48%
same,inhibition at 25 µM,"stearic acid 25 µM, time relative to infection 0 hours, read-out: % reduction in virus yield compared with control cultures",0%
same,inhibition at 25 µM,"stearic acid 25 µM, time relative to infection 1 hours, read-out: % reduction in virus yield compared with control cultures",5%
same,inhibition at 25 µM,"stearic acid 25 µM, time relative to infection 2 hours, read-out: % reduction in virus yield compared with control cultures",0%
same,inhibition at 25 µM,"stearic acid 25 µM, time relative to infection 3 hours, read-out: % reduction in virus yield compared with control cultures",10%
same,inhibition at 25 µM,"stearic acid 25 µM, time relative to infection 4 hours, read-out: % reduction in virus yield compared with control cultures",1%
same,inhibition at 25 µM,"stearic acid 25 µM, time relative to infection 8 hours, read-out: % reduction in virus yield compared with control cultures",0%
same,inhibition at 25 µM,"stearic acid 25 µM, time relative to infection 12 hours, read-out: % reduction in virus yield compared with control cultures",3%
same,inhibition at 25 µM,"stearic acid 25 µM, time relative to infection -1 hours, read-out: % reduction in virus yield compared with control cultures",6%
same,inhibition at 25 µM,"stearic acid 25 µM, time relative to infection -2 hours, read-out: % reduction in virus yield compared with control cultures",14%
same,inhibition at 25 µM,"stearic acid 25 µM, time relative to infection -3 hours, read-out: % reduction in virus yield compared with control cultures",4%
same,inhibition at 25 µM,"stearic acid 25 µM, time relative to infection -4 hours, read-out: % reduction in virus yield compared with control cultures",2%
same,inhibition at 25 µM,"stearic acid 25 µM, time relative to infection -8 hours, read-out: % reduction in virus yield compared with control cultures",10%
same,inhibition at 25 µM,"stearic acid 25 µM, time relative to infection -12 hours, read-out: % reduction in virus yield compared with control cultures",0%
same,inhibition at 50 µM,"stearic acid 50 µM, time relative to infection 0 hours, read-out: % reduction in virus yield compared with control cultures",7%
same,inhibition at 50 µM,"stearic acid 50 µM, time relative to infection 1 hours, read-out: % reduction in virus yield compared with control cultures",8%
same,inhibition at 50 µM,"stearic acid 50 µM, time relative to infection 2 hours, read-out: % reduction in virus yield compared with control cultures",0%
same,inhibition at 50 µM,"stearic acid 50 µM, time relative to infection 3 hours, read-out: % reduction in virus yield compared with control cultures",10%
same,inhibition at 50 µM,"stearic acid 50 µM, time relative to infection 4 hours, read-out: % reduction in virus yield compared with control cultures",0%
same,inhibition at 50 µM,"stearic acid 50 µM, time relative to infection 8 hours, read-out: % reduction in virus yield compared with control cultures",5%
same,inhibition at 50 µM,"stearic acid 50 µM, time relative to infection 12 hours, read-out: % reduction in virus yield compared with control cultures",9%
same,inhibition at 50 µM,"stearic acid 50 µM, time relative to infection -1 hours, read-out: % reduction in virus yield compared with control cultures",27%
same,inhibition at 50 µM,"stearic acid 50 µM, time relative to infection -2 hours, read-out: % reduction in virus yield compared with control cultures",30%
same,inhibition at 50 µM,"stearic acid 50 µM, time relative to infection -3 hours, read-out: % reduction in virus yield compared with control cultures",27%
same,inhibition at 50 µM,"stearic acid 50 µM, time relative to infection -4 hours, read-out: % reduction in virus yield compared with control cultures",8%
same,inhibition at 50 µM,"stearic acid 50 µM, time relative to infection -8 hours, read-out: % reduction in virus yield compared with control cultures",0%
same,inhibition at 50 µM,"stearic acid 50 µM, time relative to infection -12 hours, read-out: % reduction in virus yield compared with control cultures",0%
same,inhibition at 75 µM,"stearic acid 75 µM, time relative to infection 0 hours, read-out: % reduction in virus yield compared with control cultures",18%
same,inhibition at 75 µM,"stearic acid 75 µM, time relative to infection 1 hours, read-out: % reduction in virus yield compared with control cultures",0%
same,inhibition at 75 µM,"stearic acid 75 µM, time relative to infection 2 hours, read-out: % reduction in virus yield compared with control cultures",9%
same,inhibition at 75 µM,"stearic acid 75 µM, time relative to infection 3 hours, read-out: % reduction in virus yield compared with control cultures",0%
same,inhibition at 75 µM,"stearic acid 75 µM, time relative to infection 4 hours, read-out: % reduction in virus yield compared with control cultures",3%
same,inhibition at 75 µM,"stearic acid 75 µM, time relative to infection 8 hours, read-out: % reduction in virus yield compared with control cultures",10%
same,inhibition at 75 µM,"stearic acid 75 µM, time relative to infection 12 hours, read-out: % reduction in virus yield compared with control cultures",5%
same,inhibition at 75 µM,"stearic acid 75 µM, time relative to infection -1 hours, read-out: % reduction in virus yield compared with control cultures",41%
same,inhibition at 75 µM,"stearic acid 75 µM, time relative to infection -2 hours, read-out: % reduction in virus yield compared with control cultures",38%
same,inhibition at 75 µM,"stearic acid 75 µM, time relative to infection -3 hours, read-out: % reduction in virus yield compared with control cultures",47%
same,inhibition at 75 µM,"stearic acid 75 µM, time relative to infection -4 hours, read-out: % reduction in virus yield compared with control cultures",48%
same,inhibition at 75 µM,"stearic acid 75 µM, time relative to infection -8 hours, read-out: % reduction in virus yield compared with control cultures",3%
same,inhibition at 75 µM,"stearic acid 75 µM, time relative to infection -12 hours, read-out: % reduction in virus yield compared with control cultures",8%
same,inhibition at 100 µM,"stearic acid 100 µM, time relative to infection 0 hours, read-out: % reduction in virus yield compared with control cultures",11%
same,inhibition at 100 µM,"stearic acid 100 µM, time relative to infection 1 hours, read-out: % reduction in virus yield compared with control cultures",14%
same,inhibition at 100 µM,"stearic acid 100 µM, time relative to infection 2 hours, read-out: % reduction in virus yield compared with control cultures",8%
same,inhibition at 100 µM,"stearic acid 100 µM, time relative to infection 3 hours, read-out: % reduction in virus yield compared with control cultures",11%
same,inhibition at 100 µM,"stearic acid 100 µM, time relative to infection 4 hours, read-out: % reduction in virus yield compared with control cultures",0%
same,inhibition at 100 µM,"stearic acid 100 µM, time relative to infection 8 hours, read-out: % reduction in virus yield compared with control cultures",7%
same,inhibition at 100 µM,"stearic acid 100 µM, time relative to infection 12 hours, read-out: % reduction in virus yield compared with control cultures",1%
same,inhibition at 100 µM,"stearic acid 100 µM, time relative to infection -1 hours, read-out: % reduction in virus yield compared with control cultures",30%
same,inhibition at 100 µM,"stearic acid 100 µM, time relative to infection -2 hours, read-out: % reduction in virus yield compared with control cultures",36%
same,inhibition at 100 µM,"stearic acid 100 µM, time relative to infection -3 hours, read-out: % reduction in virus yield compared with control cultures",35%
same,inhibition at 100 µM,"stearic acid 100 µM, time relative to infection -4 hours, read-out: % reduction in virus yield compared with control cultures",20%
same,inhibition at 100 µM,"stearic acid 100 µM, time relative to infection -8 hours, read-out: % reduction in virus yield compared with control cultures",0%
same,inhibition at 100 µM,"stearic acid 100 µM, time relative to infection -12 hours, read-out: % reduction in virus yield compared with control cultures",0%
same,virus yield,"stearic acid 25 µM, time relative to infection 1 hours",4.11 x 10^-3 / pfu ml^-1
same,virus yield,"stearic acid 25 µM, time relative to infection 2 hours",4.31 x 10^-3 / pfu ml^-1
same,virus yield,"stearic acid 25 µM, time relative to infection 3 hours",3.89 x 10^-3 / pfu ml^-1
same,virus yield,"stearic acid 25 µM, time relative to infection 4 hours",4.26 x 10^-3 / pfu ml^-1
same,virus yield,"stearic acid 25 µM, time relative to infection 8 hours",4.41 x 10^-3 / pfu ml^-1
same,virus yield,"stearic acid 25 µM, time relative to infection 12 hours",4.21 x 10^-3 / pfu ml^-1
same,virus yield,"stearic acid 25 µM, time relative to infection -1 hours",4.06 x 10^-3 / pfu ml^-1
same,virus yield,"stearic acid 25 µM, time relative to infection -2 hours",3.72 x 10^-3 / pfu ml^-1
same,virus yield,"stearic acid 25 µM, time relative to infection -3 hours",4.15 x 10^-3 / pfu ml^-1
same,virus yield,"stearic acid 25 µM, time relative to infection -4 hours",4.25 x 10^-3 / pfu ml^-1
same,virus yield,"stearic acid 25 µM, time relative to infection -8 hours",3.88 x 10^-3 / pfu ml^-1
same,virus yield,"stearic acid 25 µM, time relative to infection -12 hours",4.63 x 10^-3 / pfu ml^-1
same,virus yield,"stearic acid 50 µM, time relative to infection 0 hours",4.00 x 10^-3 / pfu ml^-1
same,virus yield,"stearic acid 50 µM, time relative to infection 1 hours",3.96 x 10^-3 / pfu ml^-1
same,virus yield,"stearic acid 50 µM, time relative to infection 2 hours",4.45 x 10^-3 / pfu ml^-1
same,virus yield,"stearic acid 50 µM, time relative to infection 3 hours",3.88 x 10^-3 / pfu ml^-1
same,virus yield,"stearic acid 50 µM, time relative to infection 4 hours",4.36 x 10^-3 / pfu ml^-1
same,virus yield,"stearic acid 50 µM, time relative to infection 8 hours",4.09 x 10^-3 / pfu ml^-1
same,virus yield,"stearic acid 50 µM, time relative to infection 12 hours",3.92 x 10^-3 / pfu ml^-1
same,virus yield,"stearic acid 50 µM, time relative to infection -1 hours",3.14 x 10^-3 / pfu ml^-1
same,virus yield,"stearic acid 50 µM, time relative to infection -2 hours",3.02 x 10^-3 / pfu ml^-1
same,virus yield,"stearic acid 50 µM, time relative to infection -3 hours",3.15 x 10^-3 / pfu ml^-1
same,virus yield,"stearic acid 50 µM, time relative to infection -4 hours",3.98 x 10^-3 / pfu ml^-1
same,virus yield,"stearic acid 50 µM, time relative to infection -8 hours",4.62 x 10^-3 / pfu ml^-1
same,virus yield,"stearic acid 50 µM, time relative to infection -12 hours",4.75 x 10^-3 / pfu ml^-1
same,virus yield,"stearic acid 75 µM, time relative to infection 0 hours",3.55 x 10^-3 / pfu ml^-1
same,virus yield,"stearic acid 75 µM, time relative to infection 1 hours",4.44 x 10^-3 / pfu ml^-1
same,virus yield,"stearic acid 75 µM, time relative to infection 2 hours",3.92 x 10^-3 / pfu ml^-1
same,virus yield,"stearic acid 75 µM, time relative to infection 3 hours",4.53 x 10^-3 / pfu ml^-1
same,virus yield,"stearic acid 75 µM, time relative to infection 4 hours",4.21 x 10^-3 / pfu ml^-1
same,virus yield,"stearic acid 75 µM, time relative to infection 8 hours",3.87 x 10^-3 / pfu ml^-1
same,virus yield,"stearic acid 75 µM, time relative to infection 12 hours",4.11 x 10^-3 / pfu ml^-1
same,virus yield,"stearic acid 75 µM, time relative to infection -1 hours",2.54 x 10^-3 / pfu ml^-1
same,virus yield,"stearic acid 75 µM, time relative to infection -2 hours",2.69 x 10^-3 / pfu ml^-1
same,virus yield,"stearic acid 75 µM, time relative to infection -3 hours",2.31 x 10^-3 / pfu ml^-1
same,virus yield,"stearic acid 75 µM, time relative to infection -4 hours",2.25 x 10^-3 / pfu ml^-1
same,virus yield,"stearic acid 75 µM, time relative to infection -8 hours",4.18 x 10^-3 / pfu ml^-1
same,virus yield,"stearic acid 75 µM, time relative to infection -12 hours",3.96 x 10^-3 / pfu ml^-1
same,virus yield,"stearic acid 100 µM, time relative to infection 0 hours",3.85 x 10^-3 / pfu ml^-1
same,virus yield,"stearic acid 100 µM, time relative to infection 1 hours",3.71 x 10^-3 / pfu ml^-1
same,virus yield,"stearic acid 100 µM, time relative to infection 2 hours",3.96 x 10^-3 / pfu ml^-1
same,virus yield,"stearic acid 100 µM, time relative to infection 3 hours",3.83 x 10^-3 / pfu ml^-1
same,virus yield,"stearic acid 100 µM, time relative to infection 4 hours",4.52 x 10^-3 / pfu ml^-1
same,virus yield,"stearic acid 100 µM, time relative to infection 8 hours",4.03 x 10^-3 / pfu ml^-1
same,virus yield,"stearic acid 100 µM, time relative to infection 12 hours",4.28 x 10^-3 / pfu ml^-1
same,virus yield,"stearic acid 100 µM, time relative to infection -1 hours",3.04 x 10^-3 / pfu ml^-1
same,virus yield,"stearic acid 100 µM, time relative to infection -2 hours",2.77 x 10^-3 / pfu ml^-1
same,virus yield,"stearic acid 100 µM, time relative to infection -3 hours",2.80 x 10^-3 / pfu ml^-1
same,virus yield,"stearic acid 100 µM, time relative to infection -4 hours",3.45 x 10^-3 / pfu ml^-1
same,virus yield,"stearic acid 100 µM, time relative to infection -8 hours",4.33 x 10^-3 / pfu ml^-1
same,virus yield,"stearic acid 100 µM, time relative to infection -12 hours",4.72 x 10^-3 / pfu ml^-1
